For 15 molecules, GI50 and TGI results are on record in PubChem BioAssay (NCI).

Some test systems named below: SF-268 CNS; SK-MEL-5 melanoma; U251 CNS; NCI-H226 lung; EKVX NSCLC; UACC-257 melanoma; SF-295 CNS; UACC-62 melanoma; MOLT-4 leukemia; HCC-2998 colon.
Test in all cases: NCI-60 cell line screen, 48 h

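1) Cells in 96-well plates. 2) Compound, 48 h, 5 concentrations. 3) Linear interpolation between surrounding doses. 4) Unreached endpoint = highest concentration. GI50 = concentration required for 50% inhibition of growth. At the TGI there is no net growth.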

In the case of `CCOC(=O)CCC(NC(=O)c1ccc(Nc2nc3cc(N)cc(N)c3nc2-c2ccccc2)cc1)C(=O)OCC` (centres undefined), the GI50 in the test with SF-268 CNS was 34.2 µM; with SK-MEL-5 melanoma, 12.6 µM; in the test with U251 CNS, more than 44.7 µM; in the test with NCI-H226 lung, more than 51.6 µM; in the test with EKVX NSCLC it was more than 53.8 µM; in the test with UACC-257 melanoma it was 6.04 µM. Besides, the GI50 was more than 42 µM with SF-295 CNS, 12.6 µM with UACC-62 melanoma and 9.9 µM with MOLT-4 leukemia. In addition, the TGI is more than 100 µM in the test with SF-268 CNS; 44.6 µM with SK-MEL-5 melanoma; more than 66 µM in the test on U251 CNS; more than 74.1 µM in the test on NCI-H226 lung; more than 100 µM in the test with EKVX NSCLC; 13.7 µM in the test with UACC-257 melanoma. The TGI with SF-295 CNS was more than 66.3 µM; in the test on UACC-62 melanoma, more than 38.2 µM; with MOLT-4 leukemia it was more than 27.2 µM.
On to `Cn1cc(C2=C(c3cn(C)c4cc(Cl)ccc34)C(=O)NC2=O)c2ccccc21`, for which the GI50 is 0.18 µM with SF-268 CNS; 0.102 µM in the test on SK-MEL-5 melanoma; 0.0988 µM with U251 CNS; 2.08 µM with NCI-H226 lung; 0.169 µM in the test with UACC-257 melanoma; 0.093 µM with SF-295 CNS. Moreover, the GI50 in the test on UACC-62 melanoma is 0.0981 µM; in the test with HCC-2998 colon it was 0.203 µM; in the test with MOLT-4 leukemia, 0.345 µM. Besides, the TGI with SF-268 CNS was more than 15.1 µM; with SK-MEL-5 melanoma, 2.39 µM; with U251 CNS, more than 25 µM; in the test with NCI-H226 lung it was more than 25 µM; in the test with UACC-257 melanoma it was more than 25 µM; in the test with SF-295 CNS it was more than 25 µM. The TGI in the test on UACC-62 melanoma was more than 25 µM; in the test with HCC-2998 colon, more than 11.7 µM; in the test with MOLT-4 leukemia it was more than 25 µM.
For `Nc1ccc(Sc2ccc3c4c2cccc4c(=O)n2c4ccccc4nc32)cc1`, the GI50 with SF-268 CNS is 5.42 µM; with SK-MEL-5 melanoma, 2.92 µM; in the test on U251 CNS, 4.13 µM; in the test with NCI-H226 lung, 2.43 µM; in the test on UACC-257 melanoma, 11.8 µM; with SF-295 CNS, 2.38 µM. The GI50 in the test on UACC-62 melanoma was 2.48 µM; with HCC-2998 colon it was 10.1 µM; in the test on MOLT-4 leukemia, 2.57 µM. For the same molecule, the TGI in the test on SF-268 CNS was found to be 80.2 µM; with SK-MEL-5 melanoma it was 13.9 µM; in the test on U251 CNS, 20.6 µM; in the test on NCI-H226 lung, 11.3 µM; in the test with UACC-257 melanoma it was 43.5 µM; with SF-295 CNS, 8.01 µM. In addition, the TGI in the test on UACC-62 melanoma was 16.1 µM; in the test on HCC-2998 colon, more than 100 µM; in the test on MOLT-4 leukemia it was 7.68 µM.
As for `O=C1/C(=C/c2ccccc2)CN(C(=O)Oc2ccccc2)C/C1=C\c1ccccc1`, the TGI is more than 100 µM in the test with SF-268 CNS; more than 100 µM with SK-MEL-5 melanoma; more than 100 µM in the test with U251 CNS; more than 100 µM in the test on EKVX NSCLC; more than 100 µM in the test with UACC-257 melanoma; 34.1 µM in the test with SF-295 CNS. In the test with UACC-62 melanoma, the TGI is more than 100 µM.
Consider `Cn1cc(C2=C(c3cccc(Cl)c3)C(=O)NC2=O)c2ccccc21`, for which the GI50 is more than 25 µM in the test on SF-268 CNS; 10.7 µM in the test with SK-MEL-5 melanoma; 16.5 µM in the test with U251 CNS; more than 20.6 µM with NCI-H226 lung; 5.46 µM in the test on UACC-257 melanoma; more than 25 µM in the test with SF-295 CNS. In addition, the GI50 was 5.19 µM with UACC-62 melanoma, 9.59 µM in the test with HCC-2998 colon and 15.8 µM with MOLT-4 leukemia. In addition, the TGI in the test on SF-268 CNS is more than 25 µM; in the test on SK-MEL-5 melanoma it was more than 25 µM; in the test on U251 CNS it was more than 25 µM; in the test with NCI-H226 lung, more than 25 µM; in the test on UACC-257 melanoma it was 17.7 µM; in the test on SF-295 CNS, more than 25 µM. Further, the TGI is 12.7 µM with UACC-62 melanoma, more than 25 µM in the test with HCC-2998 colon and more than 25 µM in the test with MOLT-4 leukemia.
Turning to `COc1cccc(C2N3CCCCC3[C@@H]3c4[nH]c5ccccc5c4CCN23)c1OC` (some centres undefined), the TGI came out at 23.7 µM in the test on SF-268 CNS; 30.6 µM in the test on SK-MEL-5 melanoma; 30.9 µM in the test with U251 CNS; 32 µM in the test on EKVX NSCLC; 30.1 µM with UACC-257 melanoma; 31.6 µM with SF-295 CNS. Besides, the TGI was found to be 24 µM in the test with UACC-62 melanoma and 36.6 µM in the test with MOLT-4 leukemia.
As to `CC(C)=CCCC1(C)C=Cc2c(ccc3c2[nH]c2cc(O)c(C)cc23)O1` (centres undefined), the GI50 is 5.06 µM in the test with SF-268 CNS; 4.85 µM in the test with SK-MEL-5 melanoma; 4.53 µM with U251 CNS; 7.02 µM in the test on NCI-H226 lung; 9.4 µM in the test with UACC-62 melanoma; 4.63 µM with HCC-2998 colon. Further, in the test with MOLT-4 leukemia, the GI50 is 4.16 µM. In addition, the TGI in the test with SF-268 CNS was 10.2 µM; in the test with SK-MEL-5 melanoma it was 9.31 µM; in the test on U251 CNS, 8.03 µM; with NCI-H226 lung it was 14.6 µM; in the test on UACC-62 melanoma it was more than 25 µM; in the test with HCC-2998 colon it was 8.86 µM. Further, the TGI with MOLT-4 leukemia turned out to be 11.2 µM.
With `NS(=O)(=O)c1ccc(N=Nc2cc3ccccc3c(C(=O)O)c2O)cc1`, the TGI in the test with SF-268 CNS was more than 85.6 µM; in the test with SK-MEL-5 melanoma, more than 100 µM; in the test with U251 CNS, more than 95.2 µM; in the test with NCI-H226 lung it was more than 100 µM; in the test on EKVX NSCLC, more than 100 µM; in the test on UACC-257 melanoma, more than 92.3 µM. Moreover, the TGI with SF-295 CNS was more than 100 µM; in the test with UACC-62 melanoma, 97 µM; in the test on MOLT-4 leukemia, more than 100 µM.
As for `c1ccc2c(Nc3ccc4c(c3)OCO4)c3ccoc3nc2c1`, the GI50 was 15.6 µM in the test with SF-268 CNS; 8.85 µM in the test on SK-MEL-5 melanoma; 17.6 µM with U251 CNS; 25.5 µM with NCI-H226 lung; 14.7 µM in the test on SF-295 CNS; 13.9 µM with UACC-62 melanoma. Also, the GI50 is 12.5 µM in the test with HCC-2998 colon and 5.69 µM with MOLT-4 leukemia. Besides, the TGI with SF-268 CNS was 51.6 µM; in the test on SK-MEL-5 melanoma, 31.2 µM; in the test on U251 CNS, 41.3 µM; in the test on NCI-H226 lung, more than 100 µM; with SF-295 CNS, 34.3 µM; in the test with UACC-62 melanoma it was 33.1 µM. For the same molecule, the TGI was 29.6 µM in the test with HCC-2998 colon and more than 100 µM in the test with MOLT-4 leukemia.
As to `C[C@@H]1CC[C@H]2C(CN(C)CC3=C(C(F)(F)F)O[C@@H]4O[C@@]5(C)CC[C@H]6[C@H](C)CC[C@@H]3[C@@]46OO5)=C(C(F)(F)F)O[C@@H]3O[C@@]4(C)CC[C@@H]1[C@]32OO4`, the GI50 is 2.82 µM with SF-268 CNS; 1.86 µM with SK-MEL-5 melanoma; 0.405 µM in the test on U251 CNS; 3.71 µM in the test on NCI-H226 lung; 1.9 µM in the test on UACC-257 melanoma; 12.4 µM in the test with UACC-62 melanoma. The GI50 was 18.9 µM in the test with HCC-2998 colon and more than 25.4 µM with MOLT-4 leukemia. Also, the TGI with SF-268 CNS is more than 95.7 µM; in the test with SK-MEL-5 melanoma, 18.9 µM; in the test with U251 CNS it was 22.6 µM; in the test with NCI-H226 lung, more than 64.9 µM; in the test with UACC-257 melanoma, more than 51.1 µM; in the test on SF-295 CNS, more than 51.5 µM. In addition, the TGI with UACC-62 melanoma is more than 100 µM; with HCC-2998 colon, more than 59.5 µM; in the test with MOLT-4 leukemia, more than 100 µM.
For `Clc1cc(-c2csc(Cl)c2)cs1`, the TGI with SF-268 CNS, in the test on SK-MEL-5 melanoma, in the test on U251 CNS, in the test with NCI-H226 lung, in the test on EKVX NSCLC and in the test on UACC-257 melanoma was more than 100 µM each time. The TGI in the test with SF-295 CNS, in the test with UACC-62 melanoma and with MOLT-4 leukemia was more than 100 µM in each case.
`Cc1nc(=O)n2c(c1C(=O)Nc1ccc(Cl)cc1)NCCC2`: the TGI in the test with SF-268 CNS, in the test on U251 CNS, in the test on NCI-H226 lung, in the test on EKVX NSCLC, with SF-295 CNS and with UACC-62 melanoma was more than 100 µM each time. In addition, in the test with MOLT-4 leukemia, the TGI is more than 100 µM.
As for `S=C1NC2=C(CCOc3c2ccc2ccccc32)C(c2ccc(Cl)cc2)N1` (centres undefined), the GI50 in the test on SF-268 CNS is 39.2 µM; in the test with SK-MEL-5 melanoma it was 20 µM; in the test with U251 CNS, 35.5 µM; with NCI-H226 lung, 17 µM; in the test with EKVX NSCLC it was 20.2 µM; in the test with UACC-257 melanoma, 45.4 µM. For the same molecule, the GI50 is 31.9 µM in the test with SF-295 CNS, 21.7 µM in the test with UACC-62 melanoma and 25.2 µM in the test on MOLT-4 leukemia. In addition, the TGI was more than 100 µM with SF-268 CNS; 44.9 µM in the test on SK-MEL-5 melanoma; more than 100 µM in the test on U251 CNS; 49.5 µM in the test on NCI-H226 lung; 86 µM in the test with EKVX NSCLC; more than 100 µM in the test on UACC-257 melanoma. Moreover, the TGI in the test with SF-295 CNS is more than 100 µM; in the test on UACC-62 melanoma it was 76.4 µM; in the test with MOLT-4 leukemia, more than 100 µM.
Regarding `O=C(O)CSc1nnc(COc2ccccc2)n1-c1ccccc1`, the TGI in the test on SF-268 CNS, in the test on SK-MEL-5 melanoma, with U251 CNS, with NCI-H226 lung, in the test with UACC-257 melanoma and in the test with SF-295 CNS was more than 100 µM in each case. The TGI in the test on HCC-2998 colon and in the test on MOLT-4 leukemia was more than 100 µM in each case.
Turning to `COC(=O)C1=C(c2cc(OC)c(OC)c(OC)c2)OC(c2cc(OC)c(OC)c(OC)c2)C1` (centres undefined), the TGI with SF-268 CNS is more than 100 µM; in the test on SK-MEL-5 melanoma, 32.6 µM; in the test on U251 CNS, 44.2 µM; in the test with NCI-H226 lung it was 75.4 µM; in the test with UACC-257 melanoma it was 51.5 µM; in the test on SF-295 CNS, 51.1 µM. For the same molecule, the TGI in the test on UACC-62 melanoma turned out to be 27.5 µM; in the test with HCC-2998 colon it was 41.4 µM; in the test with MOLT-4 leukemia, 68.5 µM.
